Calls of active or inactive are those of the source. No cut-off for these calls is given here.
Experiments:
[1] = Antiproliferative activity against human RPMI8226 cells after 96 hrs by MTT assay; type: functional, cell-based; conditions: RPMI-8226, 96 h
[2] = Antiproliferative activity against human HL60 cells after 96 hrs by MTT assay; type: functional, cell-based; conditions: HL-60, 96 h
[3] = Cytotoxicity against human COLO205 cells expressing B-RAF V600E mutant assessed as reduction in cell viability after 96 hrs by CellTiter-Glo luminescence assay or methylene blue assay; type: functional, cell-based; conditions: COLO 205, 96 h
[4] = molecular target: Proto-oncogene tyrosine-protein kinase Src (Homo sapiens) (UniProt P12931); test: Inhibition of human c-Src assessed as remaining activity at 1 uM after 40 mins in presence of [gamma33P-ATP] by scintillation counting
Sequence of Proto-oncogene tyrosine-protein kinase Src (Homo sapiens) (P12931 2-536 limits assumed): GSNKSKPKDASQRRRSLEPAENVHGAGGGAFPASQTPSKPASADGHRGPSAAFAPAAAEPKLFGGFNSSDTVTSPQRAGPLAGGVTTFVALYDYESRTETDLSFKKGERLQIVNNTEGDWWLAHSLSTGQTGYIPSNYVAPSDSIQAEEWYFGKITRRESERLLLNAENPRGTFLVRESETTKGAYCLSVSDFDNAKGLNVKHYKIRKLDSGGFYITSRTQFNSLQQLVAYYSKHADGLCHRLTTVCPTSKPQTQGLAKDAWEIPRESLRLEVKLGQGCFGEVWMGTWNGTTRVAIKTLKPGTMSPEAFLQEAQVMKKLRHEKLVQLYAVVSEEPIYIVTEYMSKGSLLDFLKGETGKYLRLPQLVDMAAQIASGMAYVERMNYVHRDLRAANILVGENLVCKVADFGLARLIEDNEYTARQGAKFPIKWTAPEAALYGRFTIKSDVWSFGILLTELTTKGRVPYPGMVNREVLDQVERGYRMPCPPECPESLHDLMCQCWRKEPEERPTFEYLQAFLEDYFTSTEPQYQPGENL

[5] = molecular target: Tyrosine-protein kinase Fyn (Homo sapiens) (UniProt P06241); test: Inhibition of human Fyn assessed as remaining activity at 0.1 uM after 40 mins in presence of [gamma33P-ATP] by scintillation counting
Sequence of Tyrosine-protein kinase Fyn (Homo sapiens) (P06241 2-537 limits assumed): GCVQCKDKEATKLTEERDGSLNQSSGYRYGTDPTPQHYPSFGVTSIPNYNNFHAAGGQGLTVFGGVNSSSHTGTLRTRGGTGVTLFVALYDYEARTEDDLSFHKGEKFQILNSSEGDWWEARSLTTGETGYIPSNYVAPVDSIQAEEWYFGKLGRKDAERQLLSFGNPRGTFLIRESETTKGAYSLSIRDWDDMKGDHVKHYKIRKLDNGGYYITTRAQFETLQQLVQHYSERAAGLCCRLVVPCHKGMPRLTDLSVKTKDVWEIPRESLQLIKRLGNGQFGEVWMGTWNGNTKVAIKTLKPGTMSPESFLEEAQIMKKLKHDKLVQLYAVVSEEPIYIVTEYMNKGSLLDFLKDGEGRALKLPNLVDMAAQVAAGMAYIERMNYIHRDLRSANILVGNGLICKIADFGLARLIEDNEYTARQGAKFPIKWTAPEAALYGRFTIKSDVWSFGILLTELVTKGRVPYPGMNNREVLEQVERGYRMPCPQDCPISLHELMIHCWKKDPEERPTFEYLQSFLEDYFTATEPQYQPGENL

[6] = Antiproliferative activity against human U266 cells after 96 hrs by MTT assay; type: functional, cell-based; conditions: U-266, 96 h
[7] = Cytotoxicity against human AU565 cells assessed as reduction in cell viability after 96 hrs by CellTiter-Glo luminescence assay or methylene blue assay; type: functional, cell-based; conditions: AU565, 96 h
[8] = molecular target: Tyrosine-protein kinase Lck (Homo sapiens) (UniProt P06239); test: Inhibition of human Lck assessed as remaining activity at 1 uM after 40 mins in presence of [gamma33P-ATP] by scintillation counting
Sequence of Tyrosine-protein kinase Lck (Homo sapiens) (P06239 2-509 limits assumed): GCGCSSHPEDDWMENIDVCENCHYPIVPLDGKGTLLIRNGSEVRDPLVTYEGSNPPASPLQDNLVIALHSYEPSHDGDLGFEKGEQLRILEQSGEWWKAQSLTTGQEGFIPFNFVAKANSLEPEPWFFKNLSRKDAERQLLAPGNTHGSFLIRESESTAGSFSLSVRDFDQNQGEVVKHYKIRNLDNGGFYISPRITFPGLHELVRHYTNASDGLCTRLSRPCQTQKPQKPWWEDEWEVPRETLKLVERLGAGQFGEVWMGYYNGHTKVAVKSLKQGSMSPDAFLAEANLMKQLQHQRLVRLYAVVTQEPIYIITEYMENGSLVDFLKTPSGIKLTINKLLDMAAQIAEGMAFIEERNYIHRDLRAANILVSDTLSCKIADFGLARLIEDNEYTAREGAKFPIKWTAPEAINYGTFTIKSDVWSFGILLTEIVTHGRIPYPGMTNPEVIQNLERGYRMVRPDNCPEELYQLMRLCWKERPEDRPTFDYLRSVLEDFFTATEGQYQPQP

[9] = Cytotoxicity against human DU4475 cells expressing B-RAF V600E mutant assessed as reduction in cell viability after 96 hrs by CellTiter-Glo luminescence assay or methylene blue assay; type: functional, cell-based; conditions: DU-4475, 96 h
[10] = Cytotoxicity against human DLD1 cells expressing K-ras G13D mutant assessed as reduction in cell viability after 96 hrs by CellTiter-Glo luminescence assay or methylene blue assay; type: functional, cell-based; conditions: DLD-1, 96 h
[11] = molecular target: Receptor-type tyrosine-protein kinase FLT3 (Homo sapiens) (UniProt P36888); test: Inhibition of human Flt3 assessed as remaining activity at 0.1 uM after 40 mins in presence of [gamma33P-ATP] by scintillation counting
[12] = molecular target: Tyrosine-protein kinase Lck (Homo sapiens) (UniProt P06239); test: Inhibition of human Lck assessed as remaining activity at 0.1 uM after 40 mins in presence of [gamma33P-ATP] by scintillation counting
[13] = Cytotoxicity against human HCT116 cells expressing K-ras G13D mutant assessed as reduction in cell viability after 96 hrs by CellTiter-Glo luminescence assay or methylene blue assay; type: functional, cell-based; conditions: HCT-116, 96 h
LOX = test: Antitumor activity against human LOX cells expressing B-RAF V600E mutant xenografted in athymic mouse assessed as tumor regression at 10 to 40 mg/kg, iv administered for two weekly rounds of five injections daily with two-day rest period between the rounds measured twice weekly from first day of treatment; type: functional, organism-based
[14] = Cytotoxicity against human LoVo cells expressing K-ras G13D mutant assessed as reduction in cell viability after 96 hrs by CellTiter-Glo luminescence assay or methylene blue assay; type: functional, cell-based
[15] = Cytotoxicity against human MDA-MB-435 cells expressing B-RAF V600E mutant assessed as reduction in cell viability after 96 hrs by CellTiter-Glo luminescence assay or methylene blue assay; type: functional, cell-based; conditions: MDA-MB-435, 96 h
[16] = molecular target: BDNF/NT-3 growth factors receptor (Homo sapiens) (UniProt Q16620); test: Inhibition of human TrkB assessed as remaining activity at 1 uM after 40 mins in presence of [gamma33P-ATP] by scintillation counting
Sequence of BDNF/NT-3 growth factors receptor (Homo sapiens) (Q16620 32-822 limits assumed): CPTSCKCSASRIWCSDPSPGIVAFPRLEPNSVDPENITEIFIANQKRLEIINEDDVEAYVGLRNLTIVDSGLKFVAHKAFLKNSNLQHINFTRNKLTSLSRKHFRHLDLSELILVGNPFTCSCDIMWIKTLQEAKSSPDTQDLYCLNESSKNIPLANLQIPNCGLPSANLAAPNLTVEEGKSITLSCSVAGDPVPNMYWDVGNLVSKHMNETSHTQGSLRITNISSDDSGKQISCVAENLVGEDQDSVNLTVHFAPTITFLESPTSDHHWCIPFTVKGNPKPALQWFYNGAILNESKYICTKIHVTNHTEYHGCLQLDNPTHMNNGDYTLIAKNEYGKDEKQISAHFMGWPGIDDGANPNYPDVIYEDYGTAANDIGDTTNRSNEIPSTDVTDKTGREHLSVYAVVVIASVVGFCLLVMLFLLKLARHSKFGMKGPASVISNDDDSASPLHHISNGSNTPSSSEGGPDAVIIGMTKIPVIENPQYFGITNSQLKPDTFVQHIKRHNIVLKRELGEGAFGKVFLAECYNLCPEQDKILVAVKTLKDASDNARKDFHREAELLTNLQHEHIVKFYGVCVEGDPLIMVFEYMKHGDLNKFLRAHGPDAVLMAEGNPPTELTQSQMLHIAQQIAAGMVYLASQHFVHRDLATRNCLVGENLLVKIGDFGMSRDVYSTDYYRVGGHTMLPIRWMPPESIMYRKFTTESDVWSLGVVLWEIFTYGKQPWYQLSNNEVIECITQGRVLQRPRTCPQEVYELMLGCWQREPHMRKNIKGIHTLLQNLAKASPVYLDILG

[17] = Cytotoxicity against human MIAPaCa2 cells expressing K-ras G12C mutant assessed as reduction in cell viability after 96 hrs by CellTiter-Glo luminescence assay or methylene blue assay; type: functional, cell-based; conditions: MIA PaCa-2, 96 h
[18] = Antiproliferative activity against human K562 cells after 96 hrs by MTT assay; type: functional, cell-based; conditions: K562, 96 h
[19] = Antiproliferative activity against human NALM6 cells after 96 hrs by MTT assay; type: functional, cell-based; conditions: NALM-6, 96 h
[20] = Cytotoxicity against human SK-MEL-2 cells expressing N-ras Q61R mutant assessed as reduction in cell viability after 96 hrs by CellTiter-Glo luminescence assay or methylene blue assay; type: functional, cell-based; conditions: SK-MEL-2, 96 h
[21] = Antiproliferative activity against human THP1 cells after 96 hrs by MTT assay; type: functional, cell-based; conditions: THP-1, 96 h
[22] = molecular target: BDNF/NT-3 growth factors receptor (Homo sapiens) (UniProt Q16620); test: Inhibition of human TrkB assessed as remaining activity at 0.1 uM after 40 mins in presence of [gamma33P-ATP] by scintillation counting
[23] = molecular target: Proto-oncogene tyrosine-protein kinase Src (Homo sapiens) (UniProt P12931); test: Inhibition of human c-Src assessed as remaining activity at 0.1 uM after 40 mins in presence of [gamma33P-ATP] by scintillation counting
[24] = molecular target: Tyrosine-protein kinase Fyn (Homo sapiens) (UniProt P06241); test: Inhibition of human Fyn assessed as remaining activity at 1 uM after 40 mins in presence of [gamma33P-ATP] by scintillation counting
[25] = Cytotoxicity against human SW620 cells expressing K-ras G12V mutant assessed as reduction in cell viability after 96 hrs by CellTiter-Glo luminescence assay or methylene blue assay; type: functional, cell-based; conditions: SW-620, 96 h
[26] = molecular target: Tyrosine-protein kinase Lyn (Homo sapiens) (UniProt P07948); test: Inhibition of human Lyn assessed as remaining activity at 0.1 uM after 40 mins in presence of [gamma33P-ATP] by scintillation counting
Sequence of Tyrosine-protein kinase Lyn (Homo sapiens) (P07948 2-512 limits assumed): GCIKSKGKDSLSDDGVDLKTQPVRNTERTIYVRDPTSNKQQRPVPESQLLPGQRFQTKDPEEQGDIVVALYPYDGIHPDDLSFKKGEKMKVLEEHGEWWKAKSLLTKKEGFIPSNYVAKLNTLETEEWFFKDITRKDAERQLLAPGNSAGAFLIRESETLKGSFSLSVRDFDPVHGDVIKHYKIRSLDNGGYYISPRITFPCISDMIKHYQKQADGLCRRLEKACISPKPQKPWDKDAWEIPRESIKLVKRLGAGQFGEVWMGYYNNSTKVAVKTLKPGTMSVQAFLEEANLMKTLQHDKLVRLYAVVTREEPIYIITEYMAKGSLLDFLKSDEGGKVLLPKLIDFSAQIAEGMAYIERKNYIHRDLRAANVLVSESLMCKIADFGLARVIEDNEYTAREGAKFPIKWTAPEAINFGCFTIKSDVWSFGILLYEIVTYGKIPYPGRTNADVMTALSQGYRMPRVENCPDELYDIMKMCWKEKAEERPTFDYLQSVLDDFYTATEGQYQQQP

[27] = Cytotoxicity against human MES-SA cells assessed as reduction in cell viability after 96 hrs by CellTiter-Glo luminescence assay or methylene blue assay; type: functional, cell-based
[28] = Cytotoxicity against human SK-MEL-24 cells expressing B-RAF V600E mutant assessed as reduction in cell viability after 96 hrs by CellTiter-Glo luminescence assay or methylene blue assay; type: functional, cell-based; conditions: SK-MEL-24, 96 h
[29] = molecular target: Tyrosine-protein kinase Yes (Homo sapiens) (UniProt P07947); test: Inhibition of human Yes assessed as remaining activity at 0.1 uM after 40 mins in presence of [gamma33P-ATP] by scintillation counting
Sequence of Tyrosine-protein kinase Yes (Homo sapiens) (P07947 2-543 limits assumed): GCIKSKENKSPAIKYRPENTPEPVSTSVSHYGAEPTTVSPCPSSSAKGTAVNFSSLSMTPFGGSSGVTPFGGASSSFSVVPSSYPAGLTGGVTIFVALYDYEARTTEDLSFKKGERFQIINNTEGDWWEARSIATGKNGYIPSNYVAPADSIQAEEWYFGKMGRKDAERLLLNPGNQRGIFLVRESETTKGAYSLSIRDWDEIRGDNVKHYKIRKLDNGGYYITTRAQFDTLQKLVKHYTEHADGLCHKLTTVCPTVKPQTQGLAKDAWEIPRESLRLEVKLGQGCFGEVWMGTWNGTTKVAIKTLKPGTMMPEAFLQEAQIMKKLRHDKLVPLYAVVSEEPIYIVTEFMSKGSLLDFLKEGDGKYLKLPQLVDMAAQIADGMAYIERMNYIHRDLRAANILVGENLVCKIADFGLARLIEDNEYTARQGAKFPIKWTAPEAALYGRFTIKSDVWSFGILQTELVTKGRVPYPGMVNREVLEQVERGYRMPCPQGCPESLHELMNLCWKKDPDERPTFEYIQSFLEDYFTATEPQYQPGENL

[30] = Cytotoxicity against human SK-MEL-31 cells expressing B-RAF V600E mutant assessed as reduction in cell viability after 96 hrs by CellTiter-Glo luminescence assay or methylene blue assay; type: functional, cell-based
[31] = Antiproliferative activity against human MV4-11 cells expressing Flt-3 activation mutant after 96 hrs by CellTiter-Glo luminescence assay; type: functional, cell-based; conditions: MV4-11, 96 h
[32] = molecular target: Tyrosine-protein kinase Yes (Homo sapiens) (UniProt P07947); test: Inhibition of human Yes assessed as remaining activity at 1 uM after 40 mins in presence of [gamma33P-ATP] by scintillation counting
[33] = molecular target: Tyrosine-protein kinase ABL1 (Homo sapiens) (UniProt P00519); test: Inhibition of human Abl assessed as remaining activity at 0.1 uM after 40 mins in presence of [gamma33P-ATP] by scintillation counting
Sequence of Tyrosine-protein kinase ABL1 (Homo sapiens) (P00519 whole entry): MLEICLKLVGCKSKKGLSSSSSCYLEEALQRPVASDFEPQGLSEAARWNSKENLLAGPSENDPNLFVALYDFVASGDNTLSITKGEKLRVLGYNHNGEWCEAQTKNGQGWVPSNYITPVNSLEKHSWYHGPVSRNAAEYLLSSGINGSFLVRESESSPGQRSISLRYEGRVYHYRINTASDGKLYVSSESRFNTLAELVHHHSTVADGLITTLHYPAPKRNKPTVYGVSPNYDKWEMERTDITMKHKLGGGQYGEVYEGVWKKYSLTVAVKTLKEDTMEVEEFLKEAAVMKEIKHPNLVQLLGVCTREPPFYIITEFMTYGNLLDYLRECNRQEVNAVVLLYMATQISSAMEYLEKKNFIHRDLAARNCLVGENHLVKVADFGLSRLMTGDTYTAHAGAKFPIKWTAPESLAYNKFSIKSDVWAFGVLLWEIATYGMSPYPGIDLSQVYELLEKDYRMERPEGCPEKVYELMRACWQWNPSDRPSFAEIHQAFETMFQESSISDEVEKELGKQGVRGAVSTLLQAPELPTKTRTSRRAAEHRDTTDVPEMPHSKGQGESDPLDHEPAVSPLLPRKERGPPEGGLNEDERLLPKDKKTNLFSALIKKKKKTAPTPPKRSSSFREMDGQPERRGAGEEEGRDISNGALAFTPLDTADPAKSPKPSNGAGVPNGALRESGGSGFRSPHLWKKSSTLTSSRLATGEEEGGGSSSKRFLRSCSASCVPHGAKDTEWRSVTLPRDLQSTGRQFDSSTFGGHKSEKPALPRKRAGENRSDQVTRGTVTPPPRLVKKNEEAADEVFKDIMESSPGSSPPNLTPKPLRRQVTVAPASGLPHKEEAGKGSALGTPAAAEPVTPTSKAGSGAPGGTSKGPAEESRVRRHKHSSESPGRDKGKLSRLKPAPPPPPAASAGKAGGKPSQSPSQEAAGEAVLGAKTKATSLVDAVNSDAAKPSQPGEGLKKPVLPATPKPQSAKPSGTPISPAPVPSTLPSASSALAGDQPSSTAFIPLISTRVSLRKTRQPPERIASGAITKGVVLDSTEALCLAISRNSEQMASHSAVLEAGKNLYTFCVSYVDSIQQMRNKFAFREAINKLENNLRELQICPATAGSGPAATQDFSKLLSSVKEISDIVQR

[34] = Cytotoxicity against human PANC1 cells expressing K-ras G12D mutant assessed as reduction in cell viability after 96 hrs by CellTiter-Glo luminescence assay or methylene blue assay; type: functional, cell-based; conditions: PANC-1, 96 h
[35] = Cytotoxicity against human SK-MEL-3 cells expressing B-RAF V600E mutant assessed as reduction in cell viability after 96 hrs by CellTiter-Glo luminescence assay or methylene blue assay; type: functional, cell-based; conditions: SK-MEL3, 96 h

**Q.** Which IC50 [1] does the source give for `CCNc1cc(O)c2c(c1)/C=C/C[C@H](O)[C@H](O)C(=O)/C=C\[C@@H](C)[C@H](C)OC2=O` [E-6201] here?
**A.** > 7050 nM

**Q.** What about the IC50 [2] of the same molecule?
**A.** 60 nM

**Q.** What about the IC50 [3] of the same molecule?
**A.** 43 nM

**Q.** What about the Activity [4] of the same molecule?
**A.** 1%

**Q.** And the Activity [5]?
**A.** 24%

**Q.** What about the IC50 [6] of the same molecule?
**A.** 950 nM

**Q.** And the IC50 [7]?
**A.** > 10000 nM

**Q.** And the Activity [8]?
**A.** 0%

**Q.** And the IC50 [9]?
**A.** 52 nM

**Q.** What about the IC50 [10] of the same molecule?
**A.** 649 nM

**Q.** What about the Activity [11] of the same molecule?
**A.** 33%

**Q.** And the Activity [12]?
**A.** 27%

**Q.** What about the IC50 [13] of the same molecule?
**A.** 423 nM

**Q.** What about the Activity (LOX) of the same molecule?
**A.** Active

**Q.** What about the IC50 [14] of the same molecule?
**A.** 132 nM

**Q.** What about the IC50 [15] of the same molecule?
**A.** 71 nM

**Q.** What about the Activity [16] of the same molecule?
**A.** 4%

**Q.** And the IC50 [17]?
**A.** 734 nM

**Q.** What about the IC50 [18] of the same molecule?
**A.** 1800 nM

**Q.** And the IC50 [19]?
**A.** 620 nM

**Q.** And the IC50 [20]?
**A.** 135 nM

**Q.** And the IC50 [21]?
**A.** 120 nM

**Q.** What about the Activity [22] of the same molecule?
**A.** 24%

**Q.** What about the Activity [23] of the same molecule?
**A.** 31%

**Q.** What about the Activity [24] of the same molecule?
**A.** 0%

**Q.** What about the IC50 [25] of the same molecule?
**A.** 282 nM

**Q.** And the Activity [26]?
**A.** 45%

**Q.** And the IC50 [27]?
**A.** 7490 nM

**Q.** And the IC50 [28]?
**A.** 66 nM

**Q.** What about the Activity [29] of the same molecule?
**A.** 54%

**Q.** And the IC50 [30]?
**A.** 225 nM

**Q.** And the IC50 [31]?
**A.** 8.2 nM

**Q.** What about the Activity [32] of the same molecule?
**A.** 8%

**Q.** What about the Activity [33] of the same molecule?
**A.** 51%

**Q.** And the IC50 [34]?
**A.** > 10000 nM

**Q.** And the IC50 [35]?
**A.** 24 nM

From ChEMBL document CHEMBL3880411, “Multikinase inhibitors for use in the treatment of cancer” (2009)
